Where two headings read alike, the source gives them in different places.
Experiments:
Type in all cases: in vivo
[1] = tested on: Phytophthora infestans (the causal agent of tomato late blight); assay: whole plant or invertebrate
[2] = tested on: Plasmopara vilicola (the causal agent of grape downy mildew); assay: Test A: grape downy mildew, test suspension sprayed on grape seedlings after inoculation, visual disease rating
Text: General protocol for preparing test suspensions for Test A-C: The test compounds were first dissolved in acetone in an amount equal to 3% of the final volume and then suspended at the desired concentration (in ppm) in acetone and purified water (50/50 mix by volume) containing 250 ppm of the surfactant Trem® 014 (polyhydric alcohol esters). The resulting test suspensions were then used in Tests A-C. Spraying a 200 ppm test suspension to the point of run-off on the test plants was equivalent to a rate of 500 g/ha.
Grape seedlings were inoculated with a spore suspension of Plasmopara vilicola (the causal agent of grape downy mildew) and incubated in a saturated atmosphere at 20° C. for 24 h. After a short drying period, the test suspension was sprayed to the point of run-off on the grape seedlings, which were then moved to a growth chamber at 20° C. for 5 days, after which time the grape seedling were placed back into a saturated atmosphere at 20° C. for 24 h. Upon removal, visual disease ratings were made.
Results for Tests A-C are given in Table A. In the table, a rating of 100 indicates 100% disease control and a rating of 0 indicates no disease control (relative to the controls). A dash (-) indicates no test results.

[3] = tested on: Phytophthora infestans (the causal agent of tomato late blight); assay: whole plant or invertebrate; remark: listed apart in the source
[4] = compounds without asterisk (application rate not given), 100 = 100% disease control, 0 = no control relative to the controls
[5] = Phytophthora infestans, 96 h, read-out: Percent Disease Control, Test C
[6] = Plasmopara, 144 h, * tested at 40 ppm, read-out: Percent Disease Control, Test A
[7] = Phytophthora infestans, 144 h, read-out: Percent Disease Control, Test B

Compound | Percent Disease Control, Test C [1, 4] [%] | Percent Disease Control, Test A [2, 4] [%] | Percent Disease Control, Test B [3, 4] [%] | Percent Disease Control, Test C ([1]; * tested at 40 ppm) [%] | Percent Disease Control, Test A ([2]; * tested at 40 ppm) [%] | Percent Disease Control, Test B ([3]; * tested at 40 ppm) [%] | also measured
2-[5-chloro-3-(trifluoromethyl)-1H-pyrazol-1-yl]-1-[4-[4-(4,5-dihydro-5-phenyl-3-isoxazolyl)-2-thiazolyl]-1-piperidinyl]ethanone [Compound 107] | 99 | 97 | 100 |  |  |  | 
COC(=O)c1ccc(C2CC(c3csc(C4CCN(C(=O)Cn5nc(C(F)(F)F)cc5C)CC4)n3)=NO2)cc1 (stereo not drawn) [Compound 134] |  |  |  | 66 | 90 | 100 | 
Cc1cc(C(F)(F)F)nn1CC(=O)N1CCC(c2nc(-c3ccc4ccccc4c3)cs2)CC1 [Compound 61] | 0 | 80 | 77 |  |  |  | 
COc1cccc(OC)c1C1CC(c2csc(C3CCN(C(=O)Cn4nc(C(F)(F)F)cc4C)CC3)n2)=NO1 (stereo not drawn) [Compound 206] |  |  |  | 99 | 99 | 100 | 
Cc1cc(C(F)(F)F)nn1CC(=O)N1CCC(c2nc(C3=NOC(c4ccc(-c5ccccc5)cc4)C3)cs2)CC1 (stereo not drawn) [Compound 106] |  |  |  | 24 | 80 | 85 | 
Cc1cc(C(F)(F)F)nn1CC(=O)N1CCC(c2nc(C3=NOC(c4ccccc4)C3)cs2)CC1 (single isomer, unassigned) [Compound 4] |  |  |  |  |  |  | Percent Disease Control, Test C ([1]; ** tested at l0 ppm): 99%; Percent Disease Control, Test A ([2]; ** tested at l0 ppm): 100%; Percent Disease Control, Test B ([3]; ** tested at l0 ppm): 100%
CCC(=O)N1N=C(c2csc(C3CCN(C(=O)Cn4nc(C(F)(F)F)cc4C)CC3)n2)OC12CCCc1ccccc12 (stereo not drawn) [Compound 227] | 100 | 100 | 100 |  |  |  | 
Cc1cc(C(F)(F)F)nn1CC(=O)N1CCC(c2nc(-c3ccc(-c4ccccc4)o3)cs2)CC1 [Compound 83] | 0 | 46 | 92 |  |  |  | 
1-[4-[4-[(5R)-4,5-dihydro-5-phenyl-3-isoxazolyl]-2-thiazolyl]-1-piperidinyl]-2-[5-methyl-3-(trifluoromethyl)-1H-pyrazol-1-yl]ethanone [Compound 3] | 0 | 52 | 47 |  |  |  | 
Cc1cc(C(F)(F)F)nn1CC(=O)N1CCC(c2nc(C3=NOC4(CCC(c5ccccc5)C4)C3)cs2)CC1 (single isomer, unassigned) [Compound 157] |  |  |  | 94 | 100 | 100 | 
Cc1cc(C(F)(F)F)nn1CC(=O)N1CCC(c2nc(C3=NN(C(=O)C(C)C)C4(CCCc5ccccc54)O3)cs2)CC1 (stereo not drawn) [Compound 228] | 100 | 99 | 100 |  |  |  | 
Cc1cc(C(F)(F)F)nn1CC(=O)N1CCC(c2nc(C3=NOC4(CCOc5ccccc54)C3)cs2)CC1 (stereo not drawn) [Compound 137, 1-[4-[4-(2,3-dihydrospiro[4H-1-benzopyran-4,5′(4′H)-isoxazol]-3′-yl)-2-thiazolyl]-1-piperidinyl]-2-[5-methyl-3-(trifluoromethyl)-1H-pyrazol-1-yl]ethanone] |  |  |  |  |  |  | pest or weed control at 40 ppm [1, 5]: 99%; pest or weed control at 40 ppm [2, 6]: 100%; pest or weed control at 40 ppm [3, 7]: 100%
Cc1cc(C(F)(F)F)nn1CC(=O)N1CCC(c2nc(C3=NOC(CN4Cc5cccc(Cl)c5S4(=O)=O)C3)cs2)CC1 (stereo not drawn) [Compound 112] |  |  |  | 68 | 76 | 100 | 
Cc1cc(C(F)(F)F)nn1CC(=O)N1CCC(c2nc(C3=NO[C@]4(COc5ccccc54)C3)cs2)CC1 [Compound 185, 2-[5-methyl-3-(trifluoromethyl)-1H-pyrazol-1-yl]-1-[4-[4-(3R)-spiro[benzofuran-3(2H),5′(4′H)-isoxazol]-3′-yl-2-thiazolyl]-1-piperidinyl]ethanone] |  |  |  |  |  |  | pest or weed control at 40 ppm [1, 5]: 98%; pest or weed control at 40 ppm [2, 6]: 100%; pest or weed control at 40 ppm [3, 7]: 100%
Cc1ncsc1C1CC(c2csc(C3CCN(C(=O)Cn4nc(C(F)(F)F)cc4C)CC3)n2)=NO1 (stereo not drawn) [Compound 201] |  |  |  | 99 | 99 | 100 | 
Cc1cc(C(F)(F)F)nn1CC(=O)N1CCC(c2nc(C3=NOC(c4ccc(C(C)(C)C)cc4)C3)cs2)CC1 (stereo not drawn) [Compound 91] |  |  |  | 91 | 99 | 100 | 
CCc1ccc(-c2csc(C3CCN(C(=O)Cn4nc(C(F)(F)F)cc4C)CC3)n2)cc1 [Compound 268] | 88 | 100 | 100 |  |  |  | 
Cc1cc(C(F)(F)F)nn1CC(=O)N1CC=C(c2nc(C3=NOC(c4ccccc4)C3)cs2)CC1 (stereo not drawn) [Compound 217, 1-[4-[4-(4,5-dihydro-5-phenyl-3-isoxazolyl)-2-thiazolyl]-3,6-dihydro-1(2H)-pyridinyl]-2-[5-methyl-3-(trifluoromethyl)-1H-pyrazol-1 yl]ethanone] |  |  |  |  |  |  | pest or weed control at 40 ppm [1, 5]: 99%; pest or weed control at 40 ppm [2, 6]: 95%; pest or weed control at 40 ppm [3, 7]: 100%
Cc1cc(C(F)(F)F)nn1CC(=O)N1CCC(c2nc(C3=NOC(c4ccccc4)(C4CC4)C3)cs2)CC1 (stereo not drawn) [Compound 103] |  |  |  | 99 | 100 | 100 | 
CC(=O)N1N=C(c2csc(C3CCN(C(=O)Cn4nc(C(F)(F)F)cc4C)CC3)n2)CC1c1ccccc1 (stereo not drawn) [Compound 197] |  |  |  | 90 | 89 | 100 | 
Cc1cc(C(F)(F)F)nn1CC(=O)N1CCC(c2nc(C3=NOC(c4ccc(O)cc4)C3)cs2)CC1 (stereo not drawn) [Compound 110] |  |  |  | 99 | 97 | 100 | 
Cc1cc(C(F)(F)F)nn1CC(=O)N1CCC(c2nc(C3=NOC(C)(c4csc5ccccc45)C3)cs2)CC1 (stereo not drawn) [Compound 147] |  |  |  | 95 | 100 | 100 | 
Cc1cc(C(F)(F)F)nn1CC(=O)N1CCC(c2nc(-c3ccc(-c4ccccc4)s3)cs2)CC1 [Compound 85] | 0 | 85 | 70 |  |  |  | 
Cc1ccccc1[C@H]1CC(c2csc(C3CCN(C(=O)Cn4nc(C(F)(F)F)cc4C)CC3)n2)=NO1 [Compound 161, 1-[4-[4-[(5R)-4,5-dihydro-5-(2-methylphenyl)-3-isoxazolyl]-2-thiazolyl]-1-piperidinyl]-2-[5-methyl-3-(trifluoromethyl)-1H-pyrazol-1-yl]ethanone] |  |  |  |  |  |  | pest or weed control at 40 ppm [1, 5]: 99%; pest or weed control at 40 ppm [2, 6]: 100%; pest or weed control at 40 ppm [3, 7]: 100%
Cc1cc(C(F)(F)F)nn1CC(=O)N1CCC(c2nc(C3=NC(c4ccccc4)CO3)cs2)CC1 (stereo not drawn) [Compound 49] | 96 | 0 | 100 |  |  |  | 
Cc1cc(C)n(CC(=O)N2CCC(c3nc(C4=NO[C@]5(CCCc6ccccc65)C4)cs3)CC2)n1 (racemic) [Compound 164, 1-[4-[4-[(1′R)-3′,4′-dihydrospiro[isoxazole-5(4H),1′(2′H)-naphthalen]-3-yl]-2-thiazolyl]-1-piperidinyl]-2-(3,5-dimethyl-1H-pyrazol-1-yl)ethanone] |  |  |  |  |  |  | pest or weed control at 10 µg/mL [1, 5]: 99%; pest or weed control at 10 µg/mL ([2]; Plasmopara, 144 h, ** tested at l0 ppm, read-out: Percent Disease Control, Test A): 99%; pest or weed control at 10 µg/mL [3, 7]: 100%
Cc1cc(C(F)(F)F)nn1CC(=O)N1CCC(c2nc(CN3C(=O)c4ccccc4C3=O)cs2)CC1 [Compound 191] | 99 | 99 | 100 |  |  |  | 

Source: patent publication US9920030B2 (priority 2006, dated 2018)
